Reference: patent US20170280720A1, “ARGININE […] INHIBITORS AND USES THEREOF” (EPIZYME, INC., priority 2014, published 2017)

Assays:
Human CARM1 (PRMT4) = molecular target: T1, Human CARM1 (PRMT4) (Homo sapiens, UniProt Q86X55); assay: CARM1 biochemical assay (3H-SAM Flashplate, peptide substrate); details: read-out: CARM1_ IC50
T1 construct: Flag-CARM1-His; made in house; host or cells: HEK 293F cells (BacMam baculovirus, pFastBacMam)
T1 sequence (Q86X55 2-585 isoform Q86X55-1): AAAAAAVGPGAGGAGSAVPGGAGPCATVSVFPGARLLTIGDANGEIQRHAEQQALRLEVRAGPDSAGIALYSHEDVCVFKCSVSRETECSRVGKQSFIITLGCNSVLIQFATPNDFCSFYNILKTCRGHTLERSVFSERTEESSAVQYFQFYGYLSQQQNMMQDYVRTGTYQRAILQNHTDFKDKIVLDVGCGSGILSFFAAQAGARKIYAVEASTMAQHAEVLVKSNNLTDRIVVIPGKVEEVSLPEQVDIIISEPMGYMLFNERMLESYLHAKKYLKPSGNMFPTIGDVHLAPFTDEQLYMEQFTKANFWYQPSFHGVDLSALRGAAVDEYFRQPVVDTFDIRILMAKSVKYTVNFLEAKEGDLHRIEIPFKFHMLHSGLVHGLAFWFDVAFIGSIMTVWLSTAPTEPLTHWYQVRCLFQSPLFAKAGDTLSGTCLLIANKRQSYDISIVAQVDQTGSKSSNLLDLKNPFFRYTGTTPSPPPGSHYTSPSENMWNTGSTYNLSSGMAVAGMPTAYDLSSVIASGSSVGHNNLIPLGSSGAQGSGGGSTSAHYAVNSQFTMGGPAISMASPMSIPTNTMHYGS
In short: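 FLAG/His-tagged human CARM1 (isoform 1, Δ539-561, baculovirus-expressed), 0.25 nM, preincubated 30 min at room temperature with compound (2% DMSO) in 20 mM Bicine pH 7.6, then reacted with 30 nM 3H-SAM and 250 nM biotinylated H3 16-30 peptide (R26 monomethyl). Stopped with 300 uM cold SAM; labelled peptide captured on streptavidin Flashplate; % inhibition versus DMSO and 1 mM SAH controls fitted to a 4- or 3-parameter curve.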

PRMT5 = PRMT5 (Homo sapiens, UniProt O14744); assay: PRMT5 IC50 (Table 2; no method described); assay type: biochemical; details: read-out: PRMT5_ IC50
Sequence of PRMT5 (O14744 whole entry, species assumed): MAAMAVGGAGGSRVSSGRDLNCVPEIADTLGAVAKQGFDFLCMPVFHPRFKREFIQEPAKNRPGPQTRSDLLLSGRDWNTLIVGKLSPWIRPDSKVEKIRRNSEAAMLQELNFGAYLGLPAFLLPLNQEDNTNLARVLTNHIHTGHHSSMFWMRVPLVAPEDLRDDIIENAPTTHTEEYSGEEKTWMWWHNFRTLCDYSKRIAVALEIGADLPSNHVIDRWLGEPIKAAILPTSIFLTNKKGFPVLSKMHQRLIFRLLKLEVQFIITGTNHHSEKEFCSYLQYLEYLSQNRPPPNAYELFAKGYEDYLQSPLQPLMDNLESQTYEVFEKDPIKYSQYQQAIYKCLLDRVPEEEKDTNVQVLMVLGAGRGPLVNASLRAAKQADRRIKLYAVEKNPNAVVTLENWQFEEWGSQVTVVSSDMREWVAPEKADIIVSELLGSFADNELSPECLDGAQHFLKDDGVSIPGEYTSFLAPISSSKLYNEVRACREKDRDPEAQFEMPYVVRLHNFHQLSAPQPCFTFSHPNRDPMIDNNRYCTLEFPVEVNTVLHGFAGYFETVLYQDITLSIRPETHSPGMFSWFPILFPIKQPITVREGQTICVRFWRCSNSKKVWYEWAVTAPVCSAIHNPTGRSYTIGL
Sequence of PRMT5 (Q9BQA1 whole entry partner, species assumed): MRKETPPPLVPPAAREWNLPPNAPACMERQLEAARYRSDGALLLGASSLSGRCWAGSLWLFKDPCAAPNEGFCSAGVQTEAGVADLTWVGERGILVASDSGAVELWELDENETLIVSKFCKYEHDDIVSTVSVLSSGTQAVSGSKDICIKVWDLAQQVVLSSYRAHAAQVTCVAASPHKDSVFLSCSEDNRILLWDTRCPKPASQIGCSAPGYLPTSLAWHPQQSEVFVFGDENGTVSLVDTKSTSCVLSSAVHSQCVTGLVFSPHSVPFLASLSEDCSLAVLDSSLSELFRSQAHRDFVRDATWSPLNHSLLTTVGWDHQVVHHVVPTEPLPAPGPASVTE

Row | SMILES | IC50 (Human CARM1 (PRMT4)) [nM] | IC50 (PRMT5) [nM]
1 | Cc1c(C(=O)NCc2ccccc2)cc(-c2cccc(CN(C)CCN)c2)c2cn[nH]c12 [Compound 15] | 973 | 10800
2 | COc1ccc(Cn2cnc3ccc(-c4ccc(CN(C)CCN)cc4)cc32)cc1 [Compound 16] | 4080 | 5690
3 | CN(CCN)Cc1ccc(-c2ccc3ncn(-c4ccccc4)c3c2)cc1 [Compound 19] | 12600 | 34700
4 | CC(C)n1ncc2c(C(=O)N3CCc4ccccc4C3)cc(-c3cccc(CN(C)CCN)c3)nc21 [Compound 23] | 185 | 11600
5 | CNCCN(C)Cc1cccc(-c2cc(C(=O)N(C)Cc3ccccc3)c3cnn(C(C)C)c3n2)c1 [Compound 24] | 71.3 | 849
6 | CC(C)n1ncc2c(C(=O)N(C)Cc3ccccc3)cc(-c3cccc(CN(C)CCN)c3)nc21 [Compound 31] | 21.7 | 858
7 | CNCCN(C)Cc1cccc(-c2ccc3c(c2)ncn3C(C)C)c1 [Compound 36] | 15800 | 50000
8 | CNCCN(C)Cc1cccc(-c2cc(C(=O)N[C@@H](C)c3ccccc3)c3cnn(C(C)C)c3n2)c1 [Compound 44] | 18.6 | 50000
9 | CNCCN(C)Cc1cccc(-c2cc(C(=O)NCc3c(F)cccc3F)c3cnn(C(C)C)c3n2)c1 [Compound 47] | 22.4 | –
10 | CNC(=O)Nc1cc(-c2cccc(CN(C)CCN)c2)nc2c1cnn2C(C)C [Compound 126] | 7.96 | –
11 | CCC(=O)c1cc(-c2cccc(CN(C)CCNC)c2)nc2c1cnn2C(C)C [Compound 128] | 30.8 | –
12 | CS(=O)(=O)N1CCC(Cn2cnc3ccc(-c4ccc(CNCCN)cc4)cc32)CC1 [Compound 129] | 12900 | 122
13 | CNCCN(C)Cc1cc(-c2cc(C(=O)NC3CCOCC3)c3cnn(C(C)C)c3n2)ccc1F [Compound 130] | 131 | –
14 | Cc1ccc(-n2cnc3cc(-c4ccc(CNCCN)cc4)ccc32)cc1 [Compound 131] | 2840 | 371
15 | COc1ccc(Cn2cnc3ccc(-c4ccc(CNCCN)cc4)cc32)cc1 [Compound 132] | 7210 | 57.2
16 | CNCCN(C)Cc1cccc(-c2cc(NC(=O)NC3CCOCC3)c3cnn(C(C)C)c3n2)c1 [Compound 133] | 12 | –
17 | CC(C)n1ncc2c(C(=O)NCc3ccccc3)cc(-c3cccc(CNCCN)c3)cc21 [Compound 134] | 334 | –
18 | COc1cccc(Cc2nc3ccc(-c4ccc(CNCCN)cc4)cc3n2C(C)C)c1 [Compound 135] | 4920 | 169
19 | CC(C)n1ncc2c(C(=O)N[C@@H](C)c3ccccc3)cc(-c3cccc(CN(C)CCN)c3)nc21 [Compound 136] | 45.5 | 50000
20 | CNCCN(C)Cc1cccc(-c2cc(C(=O)NCc3cnn(C)c3C)c3cnn(C(C)C)c3n2)c1 [Compound 137] | 6.06 | –
21 | CNCCN(C)Cc1cccc(-c2cc(NC(=O)NC)c3cnn(C(C)C)c3n2)c1 [Compound 138] | 18.7 | –
22 | CNCCN(C)Cc1cccc(-c2cc(NS(=O)(=O)N(C)C)c3cnn(C(C)C)c3n2)c1 [Compound 139] | 37.3 | –
23 | Cc1cc2cc(-c3ccc(CNCCN)cc3)ccc2[nH]1 [Compound 141] | 5810 | 327
24 | CN(CCN)Cc1cccc(-c2cc(C(=O)NC3CCOCC3)c3cnn(C4CC4)c3n2)c1 [Compound 142] | 9.43 | –
25 | Cc1cccc(CCn2cnc3ccc(-c4ccc(CNCCN)cc4)cc32)c1 [Compound 143] | 5620 | 281
26 | CN(CCN)Cc1cccc(-c2cc(C(=O)NC3CCOCC3)c3cnn(CC(F)(F)F)c3n2)c1 [Compound 144] | 26.7 | –
27 | N#Cc1cccc(Cn2cnc3ccc(-c4ccc(CNCCN)cc4)cc32)c1 [Compound 145] | 8000 | 79.9
28 | CC(C)n1ncc2c(C(=O)NC3CCOCC3)cc(-c3cccc(CN(C)CCN)c3)nc21 [Compound 148] | 10.9 | –

Next, values leading:

Row | IC50 (Human CARM1 (PRMT4)) [nM] | IC50 (PRMT5) [nM] | SMILES
29 | 274 | 23900 | CC(C)n1ncc2c(C(=O)NCc3ccncc3)cc(-c3cccc(CNCCN)c3)nc21 [Compound 150]
30 | 92.1 | – | CNCCN(C)Cc1cccc(-c2cc(N)c3cnn(C(C)C)c3n2)c1 [Compound 151]
31 | 195 | – | CC(C)n1ncc2c(C(=O)N3CCCCC3)cc(-c3cccc(CNCCN)c3)nc21 [Compound 153]
32 | 46.9 | – | CNCCN(C)Cc1cccc(-c2cc(OCC(F)(F)F)c3cnn(C(C)C)c3n2)c1 [Compound 154]
33 | 115 | – | CC(C)n1ncc2c(C(=O)NCc3ccccc3)cc(-c3cccc(CNCCN)c3)nc21 [Compound 155]
34 | 2610 | 338 | NCCNCc1ccc(-c2cnc3c(c2)CCC(=O)N3)cc1 [Compound 156]
35 | 4600 | 418 | NCCNCc1ccc(-c2ccc3ncn(C4CCNCC4)c3c2)cc1 [Compound 157]
36 | 38.5 | – | CN(CCN)Cc1cccc(-c2cc(C(=O)NC3CCOCC3)c3cnn(C)c3n2)c1 [Compound 158]
37 | 175 | – | CC(C)n1ncc2c(C(=O)NCc3ccccc3F)cc(-c3cccc(CNCCN)c3)nc21 [Compound 159]
38 | 28 | 35900 | CC(C)n1ncc2c(C(=O)N[C@@H](C)c3ccccc3)cc(-c3cccc(CNCCN)c3)nc21 [Compound 160]
39 | 169 | – | CCS(=O)(=O)Nc1cc(-c2cccc(CN(C)CCNC)c2)nc2c1cnn2C(C)C [Compound 161]
40 | 91.6 | 50000 | CC(C)n1ncc2c(C(=O)NCC3CCN(C)CC3)cc(-c3cccc(CN(C)CCN(C)C)c3)nc21 [Compound 162]
41 | 161 | – | CC(C)n1ncc2c(N3CCOCC3)cc(-c3cccc(CN(C)CCNC4CC4)c3)nc21 [Compound 163]
42 | 358 | – | CNCCN(C)Cc1cccc(-c2cc(NS(=O)(=O)C(F)(F)F)c3cnn(C(C)C)c3n2)c1 [Compound 164]
43 | 31700 | 404 | CC(C)n1cnc2ccc(-c3ccc(CNCCN)cc3)cc21 [Compound 166]
44 | 98.2 | – | CC(C)n1ncc2c(C(=O)NCC3CCOCC3)cc(-c3cccc(CN(C)CCNC4CC4)c3)nc21 [Compound 167]
45 | 23.3 | – | CC(C)n1ncc2c(C(=O)NCc3c(F)cccc3F)cc(-c3cccc(CNCCN)c3)nc21 [Compound 168]
46 | 125 | – | CNCCN(C)Cc1cccc(-c2cc(NS(C)(=O)=O)c3cnn(C(C)C)c3n2)c1 [Compound 169]
47 | 264 | – | CNCCN(C)Cc1cccc(-c2cc(NS(C)(=O)=O)c3cnn(C(C)C)c3n2)c1 [Compound 170]
48 | 10000 | – | CNCCN(C)Cc1cccc(-c2cnc3c(c2)OCC(=O)N3)c1 [Compound 355]
49 | 24300 | 377 | COc1cccc(CNC(=O)c2cncc(-c3ccc(CNCCN)cc3)c2)c1 [Compound 356]
50 | 6290 | – | NCCNCc1ccc(-c2cnc3c(c2)OCC(=O)N3)cc1 [Compound 358]
